Laboratory results from article PMC10267100 (Communications Biology, 2023).

Tests used:
[1] = tested on: WT M1 parental cells (M1 murine myeloid leukemic cell line); assay: IL-6 dose response (differentiation) in WT M1 cells; format: cell-based; conditions: IL-6 dose response, Fig. 1a, approximate
Text: (§1) The M1 murine myeloid leukemic cell line responds in a dose-dependent manner to IL-6 stimulation. Culturing M1 cells in IL-6 results in differentiation from monocytic-like progenitor cells into terminally differentiated macrophages that undergo cell death. […] This was in contrast to five other phosphatases that were similarly overexpressed. Using an Incucyte growth assay, the growth of wild-type M1 cells was compared to that of M1 cells overexpressing HALO-PTP1B both with and without IL-6 (Fig. 1b). […] As expected, there was no difference in the growth rate of any of these cell lines in the absence of IL-6. […] To confirm that the activation loop of the JAKs are indeed a target of PTP1B, dephosphorylation assays with activated recombinant JAK kinase domains were performed in vitro. All four members of the JAK family were dephosphorylated in a PTP1B-dependent manner although JAK1 was dephosphorylated to a lesser extent than others (Fig. 1c).
Fig. 1 PTP1B dephosphorylates the JAK activation loops. a IL-6 dose response curves for phosphatases overexpressed in the M1 cell line. […] (Top) Immunoblot (IB) probing for phosphorylated-JAK (P-JAK1 antibody) activation loop. (Bottom) Ponceau stained membrane to confirm equal input of proteins on gel. Data are representative of 3 independent experiments. d Overexpression of FLAG-JAK and HALO-PTP1B in HEK293T cells. […]

[2] = tested on: M1 cells overexpressing PTP1B; assay: IL-6 dose response (differentiation) in M1 cells overexpressing PTP1B; format: cell-based, murine; conditions: IL-6 dose response, Fig. 1a, approximate
Text: as §1, with “1c). […]” for “1c).”
Murine PTP1B with an N-terminal Halo tag was sub-cloned into the Tet-On pfTRE3G expression vector for generation of a stable doxycycline-inducible Halo-mPTP1B expressing HEK293T cell line. […] 24 h post-transfection, cells were lysed in sample reducing buffer and analysed by SDS-PAGE and immunoblot as above (dephosphorylation assays). […]

**Q.** For “IL-6: cytokine used to stimulate M1 cells”, which “EC50 of IL-6 (induction of differentiation)” value [1] is on record?
**A.** The value was roughly 2 ng/mL.

**Q.** What about the “EC50 of IL-6 (induction of differentiation)” value [2] of the same substance?
**A.** Its value is “approximately 10 ng/mL”.
